Source: patent US10047098B2, “C5-C6-oxacyclic fused iminopyrimidinone compounds as bace inhibitors, compositions, and their use” (Merck Sharp & Dohme Corp., priority 2014, dated 2018)

Key:
[1] = molecular target: purified human autoBACE-2 (Homo sapiens (Human), UniProt Q9Y5Z0); assay: BACE-2 Assay (BACE-HTRF assay); format: biochemical; conditions: Ki calculated from IC50 using the Cheng-Prusoff equation; QSY7-EISEVNLDAEFC-Eu-amide substrate, pH 5.0
Method: Inhibitor IC50s at purified human autoBACE-2 are determined in a time-resolved endpoint proteolysis assay that measures hydrolysis of the QSY7-[…]-Eu-amide FRET peptide substrate (BACE-HTRF assay). […] DMSO is present at 5% final concentration in the assay. Following laser excitation of sample wells at 320 nm, the fluorescence signal at 620 nm is collected for 400 ms following a 50 μs delay on a RUBYstar HTRF plate reader (BMG Labtechnologies). Raw RFU data is normalized to maximum (1.0 nM BACE/DMSO) and minimum (no enzyme/DMSO) RFU values. […] The Ki values are calculated from the IC50 using the Cheng-Prusoff equation.

[2] = molecular target: Recombinant human soluble BACE1 catalytic domain (Homo sapiens (Human), UniProt P56817); assay: BACE1 HTRF FRET Assay; format: biochemical; conditions: Ki calculated from IC50 using the Cheng-Prusoff equation; QSY7-APPswe-Eu substrate, pH 5.0; read-out: BACE-1 Ki
Excerpt: Reagents: Na^+-Acetate pH 5.0; 1% Brij-35; Glycerol; Dimethyl Sulfoxide (DMSO); Recombinant human soluble BACE1 catalytic domain (>95% pure); APP Swedish mutant peptide substrate (QSY7-APP^swe-Eu): QSY7-EISEVNLDAEFC-Europium-amide.
A homogeneous time-resolved FRET assay can be used to determine IC50 values for inhibitors of the soluble human BACE1 catalytic domain. This assay monitors the increase of 620 nm fluorescence that resulted from BACE1 cleavage of an APPswedish APP^swe mutant peptide FRET substrate (QSY7-EISEVNLDAEFC-Europium-amide). This substrate contains an N-terminal QSY7 moiety that serves as a quencher of the C-terminal Europium fluorophore (620 nm Em). In the absence of enzyme activity, 620 nm fluorescence is low in the assay and increased linearly over 3 hours in the presence of uninhibited BACE1 enzyme. Inhibition of BACE1 cleavage of the QSY7-APP^swe-Eu substrate by inhibitors is manifested as a suppression of 620 nm fluorescence.
Varying concentrations of inhibitors at 3× the final desired concentration in a volume of 10 ul are preincubated with purified human BACE1 catalytic domain (3 nM in 10 μl) for 30 minutes at 30° C. in reaction buffer containing 20 mM Na-Acetate pH 5.0, 10% glycerol, 0.1% Brij-35 and 7.5% DSMO. Reactions are initiated by addition of 10 μl of 600 nM QSY7-APP^swe-Eu substrate (200 nM final) to give a final reaction volume of 30 μl in a 384 well Nunc HTRF plate. The reactions are incubated at 30° C. for 1.5 hours. The 620 nm fluorescence is then read on a Rubystar HTRF plate reader (BMG Labtechnologies) using a 50 millisecond delay followed by a 400 millisecond acquisition time window. Inhibitor IC50 values are derived from non-linear regression analysis of concentration response curves. Ki values are then calculated from IC50 values using the Cheng-Prusoff equation using a previously determined […] of 8 μM for the QSY7-APP^swe-Eu substrate at BACE1.

Chain of Recombinant human soluble BACE1 catalytic domain (P56817 75-416): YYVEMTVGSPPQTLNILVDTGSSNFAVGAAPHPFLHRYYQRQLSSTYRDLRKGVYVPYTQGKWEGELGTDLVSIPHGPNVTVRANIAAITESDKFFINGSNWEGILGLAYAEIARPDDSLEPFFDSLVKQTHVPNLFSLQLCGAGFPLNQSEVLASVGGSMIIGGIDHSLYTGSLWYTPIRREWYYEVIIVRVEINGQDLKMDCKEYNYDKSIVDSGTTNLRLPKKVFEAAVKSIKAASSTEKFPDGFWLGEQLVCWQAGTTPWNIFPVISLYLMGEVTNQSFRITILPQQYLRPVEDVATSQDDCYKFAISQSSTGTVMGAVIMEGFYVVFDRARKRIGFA
Chain of purified human autoBACE-2 (Q9Y5Z0 63-473 limits assumed): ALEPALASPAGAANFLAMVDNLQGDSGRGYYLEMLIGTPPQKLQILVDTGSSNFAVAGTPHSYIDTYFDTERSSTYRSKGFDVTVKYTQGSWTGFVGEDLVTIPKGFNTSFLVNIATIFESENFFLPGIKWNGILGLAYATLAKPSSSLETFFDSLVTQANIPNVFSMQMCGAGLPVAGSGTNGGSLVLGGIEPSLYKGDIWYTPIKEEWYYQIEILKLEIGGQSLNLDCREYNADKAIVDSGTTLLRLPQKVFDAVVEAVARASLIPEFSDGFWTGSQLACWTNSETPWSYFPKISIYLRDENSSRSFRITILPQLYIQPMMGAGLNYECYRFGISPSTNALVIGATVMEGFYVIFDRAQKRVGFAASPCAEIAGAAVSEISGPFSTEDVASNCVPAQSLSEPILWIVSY

Row | SMILES | Ki [1] | Ki [2]
1 | COC[C@H]1C[C@H]2C(=O)N(C)C(=N)N[C@@]2(c2ccc(F)cc2F)CO1 [Example 1, (4aR,6R,8aS)-8a-(2,4-difluorophenyl)-2-imino-6-(methoxymethyl)-3-methylhexahydro-1H-pyrano[3,4-d]pyrimidin-4(4aH)-one] | 237 nM | 629 nM
2 | COC[C@H]1C[C@H]2C(=O)N(C)C(=N)N[C@@]2(c2cc(Oc3cc(C#N)ccn3)c(F)cc2F)CO1 [Example 2, 2-(2,4-difluoro-5-((4aR,6R,8aS)-2-imino-6-(methoxymethyl)-3-methyl-4-oxohexahydro-1H-pyrano[3,4-d]pyrimidin-8a(8H)-yl)phenoxy)isonicotinonitrile] | 11 nM | 3 nM
3 | COC[C@H]1C[C@H]2C(=O)N(C)C(=N)N[C@@]2(c2cc(Oc3ncccc3F)c(F)cc2F)CO1 [Example 3, (4aR,6R,8aS)-8a-(2,4-difluoro-5-((3-fluoropyridin-2-yl)oxy)phenyl)-2-imino-6-(methoxymethyl)-3-methylhexahydro-1H-pyrano[3,4-d]pyrimidin-4(4aH)-one] | 3 nM | 1 nM
4 | COC[C@H]1C[C@H]2C(=O)N(C)C(=N)N[C@@]2(c2cc(Oc3cc(OC)ccn3)c(F)cc2F)CO1 [Example 4, (4aR,6R,8aS)-8a-(2,4-difluoro-5-((4-methoxypyridin-2-yl)oxy)phenyl)-2-imino-6-(methoxymethyl)-3-methylhexahydro-1H-pyrano[3,4-d]pyrimidin-4(4aH)-one] | 61 nM | 20 nM
5 | COC[C@H]1C[C@H]2C(=O)N(C)C(=N)N[C@@]2(c2cc(OCC3CC3)c(F)cc2F)CO1 [Example 5, (4aR,6R,8aS)-8a-(5-(cyclopropylmethoxy)-2,4-difluorophenyl)-2-imino-6-(methoxymethyl)-3-methylhexahydro-1H-pyrano[3,4-d]pyrimidin-4(4aH)-one] | 82 nM | 68 nM
6 | CN1C(=N)N[C@@]2(c3ccc(F)cc3F)CO[C@@H](C(F)F)C[C@H]2C1=O [Example 7, (4aR,6R,8aS)-6-(difluoromethyl)-8a-(2,4-difluorophenyl)-2-imino-3-methylhexahydro-1H-pyrano[3,4-d]pyrimidin-4(4aH)-one] | 254 nM | 312 nM
7 | Cc1cc([C@H]2C[C@H]3C(=O)N(C)C(=N)N[C@@]3(c3cc(F)ccc3F)CO2)on1 [Example 8, (4aR,6R,8aS)-8a-(2,5-difluorophenyl)-2-imino-3-methyl-6-(3-methylisoxazol-5-yl)hexahydro-1H-pyrano[3,4-d]pyrimidin-4(4aH)-one] | 34 nM | 131 nM
8 | C[C@H]1C[C@H]2C(=O)N(C)C(=N)N[C@@]2(c2cc(Oc3cc(C#N)ccn3)c(F)cc2F)CO1 [Example 9, 2-(2,4-difluoro-5-((4aR,6S,8aS)-2-imino-3,6-dimethyl-4-oxohexahydro-1H-pyrano[3,4-d]pyrimidin-8a(8H)-yl)phenoxy)isonicotinonitrile] | 4 nM | 2 nM
9 | C[C@H]1C[C@H]2C(=O)N(C)C(=N)N[C@@]2(c2cc(Oc3ncccc3F)c(F)cc2F)CO1 [Example 10, (4aR,6S,8aS)-8a-(2,4-difluoro-5-((3-fluoropyridin-2-yl)oxy)phenyl)-2-imino-3,6-dimethylhexahydro-1H-pyrano[3,4-d]pyrimidin-4(4aH)-one] | 2 nM | 4 nM
10 | C[C@H]1C[C@H]2C(=O)N(C)C(=N)N[C@@]2(c2ccc(F)cc2F)CO1 [Example 11, (4aR,65,8aS)-8a-(2,4-difluorophenyl)-2-imino-3,6-dimethylhexahydro-1H-pyrano[3,4-d]pyrimidin-4(4aH)-one] | 105 nM | 110 nM
11 | C[C@H]1C[C@H]2C(=O)N(C)C(=N)N[C@@]2(c2cc(Oc3cc(C#N)ccn3)ccc2F)CO1 [Example 21, 2-(4-fluoro-3-((4aR,6S,8aS)-2-imino-3,6-dimethyl-4-oxohexahydro-1H-pyrano[3,4-d]pyrimidin-8a(8H)-yl)phenoxy)isonicotinonitrile] | 6 nM | 6 nM

Second part, the molecule after the results:

Row | Ki [1] | Ki [2] | SMILES
12 | 265 nM | 99 nM | CN1C(=N)N[C@@]2(c3ccc(F)cc3F)CO[C@@H](C3CC3)C[C@H]2C1=O [Example 6, (4aR,6R,8aS)-6-cyclopropyl-8a-(2,4-difluorophenyl)-2-imino-3-methylhexahydro-1H-pyrano[3,4-d]pyrimidin-4(4aH)-one]
13 | 23 nM | 52 nM | CN1C(=N)N[C@@]2(c3cc(Oc4cc(-n5cccn5)ncn4)ccc3F)CO[C@@H](C3CC3)C[C@H]2C1=O [Example 13, (4aR,6R,8aS)-8a-(5-((6-(1H-pyrazol-1-yl)pyrimidin-4-yl)oxy)-2-fluorophenyl)-6-cyclopropyl-2-imino-3-methylhexahydro-1H-pyrano[3,4-d]pyrimidin-4(4aH)-one]
14 | 13 nM | 2 nM | CN1C(=N)N[C@@]2(c3cc(Oc4cc(C#N)ccn4)ccc3F)CO[C@@H](C3CC3)C[C@H]2C1=O [Example 14, 2-(3-((4aR,6R,8aS)-6-cyclopropyl-2-imino-3-methyl-4-oxohexahydro-1H-pyrano[3,4-d]pyrimidin-8a(8H)-yl)-4-fluorophenoxy)isonicotinonitrile]
15 | 8 nM | 2 nM | CN1C(=N)N[C@@]2(c3cc(Oc4ncccc4F)ccc3F)CO[C@@H](C3CC3)C[C@H]2C1=O [Example 15, (4aR,6R,8aS)-6-cyclopropyl-8a-(2-fluoro-5-((3-fluoropyridin-2-yl)oxy)phenyl)-2-imino-3-methylhexahydro-1H-pyrano[3,4-d]pyrimidin-4(4aH)-one]
16 | 42 nM | 43 nM | CN1C(=N)N[C@@]2(c3cc(Oc4ccnc(-n5cncn5)c4)ccc3F)CO[C@@H](C3CC3)C[C@H]2C1=O [Example 16, (4aR,6R,8aS)-8a-(5-((2-(1H-1,2,4-triazol-1-yl)pyridin-4-yl)oxy)-2-fluorophenyl)-6-cyclopropyl-2-imino-3-methylhexahydro-1H-pyrano[3,4-d]pyrimidin-4(4aH)-one]
17 | 102 nM | 12 nM | Cc1cncc(Oc2ccc(F)c([C@]34CO[C@@H](C5CC5)C[C@H]3C(=O)N(C)C(=N)N4)c2)n1 [Example 17, (4aR,6R,8aS)-6-cyclopropyl-8a-(2-fluoro-5-((6-methylpyrazin-2-yl)oxy)phenyl)-2-imino-3-methylhexahydro-1H-pyrano[3,4-d]pyrimidin-4(4aH)-one]
18 | 109 nM | 11 nM | CN1C(=N)N[C@@]2(c3cc(Oc4ncc(F)cc4F)ccc3F)CO[C@@H](C3CC3)C[C@H]2C1=O [Example 18, (4aR,6R,8aS)-6-cyclopropyl-8a-(5-((3,5-difluoropyridin-2-yl)oxy)-2-fluorophenyl)-2-imino-3-methylhexahydro-1H-pyrano[3,4-d]pyrimidin-4(4aH)-one]
19 | 5 nM | 7 nM | C[C@H]1C[C@H]2C(=O)N(C)C(=N)N[C@@]2(c2cc(Oc3ncccc3F)ccc2F)CO1 [Example 19, (4aR,6S,8aS)-8a-(2-fluoro-5-((3-fluoropyridin-2-yl)oxy)phenyl)-2-imino-3,6-dimethylhexahydro-1H-pyrano[3,4-d]pyrimidin-4(4aH)-one]
20 | 228 nM | 60 nM | CN1C(=N)N[C@@]2(c3cc(Oc4ccnc(C(F)F)c4)ccc3F)CO[C@@H](C3CC3)C[C@H]2C1=O [Example 20]
